# Laboratory results published in patent US10155743B2, “Glutarimide derivatives, use thereof, pharmaceutical composition based thereon and methods for producing glutarimide derivatives” (OBSCHESTVO S OGRANICHENNOI OTVETSTVENNOSTIYU …, priority 2013, dated 2018).
# Like-named read-outs stand apart in the source and are kept apart here.
# Tested on: human virus hRSV adapted to the growth in mouse lungs
# Assay: animal or person
# Assay type: in vivo
# Conditions: for Body weight of the mice after infection with hRSV, Day 5 / Body weight of the mice after infection with hRSV, Day 7: 30 mg/kg orally once daily for 5 days from 24 h after infection, M ± SD, n = 6; for hRSV viral titer in mouse lungs, Day 5, lg / hRSV viral titer in mouse lungs, Day 7, lg: 30 mg/kg orally once daily for 5 days, 10% lung suspension titrated in Hep-2 cell culture, TCID; for log reduction at 30 mg/kg: human respiratory syncytial virus, po, 120 h
# [1] = read-out: Suppression of the reproduction of hRSV virus in mouse lungs, Day 5, Δlg
# [2] = read-out: Suppression of the reproduction of hRSV virus in mouse lungs, Day 7, Δlg
Structure (SMILES),"Body weight of the mice after infection with hRSV, Day 5","Body weight of the mice after infection with hRSV, Day 7","hRSV viral titer in mouse lungs, Day 5, lg [lg]","hRSV viral titer in mouse lungs, Day 7, lg [lg]",log reduction at 30 mg/kg [1],log reduction at 30 mg/kg [2]
"O=C1CCCC(=O)N1CCc1cnc[nH]1 [Compound 1, 1-(2-(1H-imidazol-4-yl)ethyl)piperidine-2,6-dione]",16.43 ± 0.14,17.98 ± 0.26,2.88 ± 0.59,1.46 ± 0.17,1.73 ± 0.59,2.34 ± 0.17
CC1(C)CC(=O)N(CCc2cnc[nH]2)C(=O)C1 [Compound 3],16.65 ± 0.28,17.32 ± 0.25,3.04 ± 0.42,1.46 ± 0.17,1.56 ± 0.42,2.18 ± 0.28
O=C1CCCC(=O)N1CCC1CCCN1 (stereo not shown) [Compound 4],16.77 ± 0.20,17.08 ± 0.32,2.58 ± 0.51,1.38 ± 0.24,2.02 ± 0.51,2.58 ± 0.53
Cn1cnc(CCN2C(=O)CCCC2=O)c1 [Compound 5],16.02 ± 0.16,17.78 ± 0.26,2.17 ± 0.37,0.88 ± 0.31,2.43 ± 0.37,2.93 ± 0.31
O=C1CCCC(=O)N1CCc1nccs1 [Compound 6],16.47 ± 0.26,17.02 ± 0.29,,,,
"O=C1CCCC(=O)N1CCc1nc2ccccc2s1 [Compound 7, 1-[2-(1H-benzothiazol-2-yl)ethyl]piperidine-2-dione]",17.17 ± 0.26,18.53 ± 0.55,,,,
O=C1CCCC(=O)N1CCc1ncc[nH]1 [Compound 8],15.18 ± 0.18,17.13 ± 0.27,,,,
O=C1CCCC(=O)N1CCc1ccncc1 [Compound 9],15.75 ± 0.33,16.18 ± 0.29,,,,
"O=C1CCCC(=O)N1CCc1cccnc1 [Compound 10, 1-[2-(1H-pyridyl-3-yl)ethyl]piperidine-2,6-dione]",16.18 ± 0.29,16.53 ± 0.20,,,,
O=C1CCCC(=O)N1CCN1CCOCC1 [Compound 117],16.07 ± 0.12,16.48 ± 0.28,3.00 ± 0.41,1.46 ± 0.24,1.6 ± 0.41,2.22 ± 0.34
O=C1CCCC(=O)N1CCC1CCNC1 (stereo not shown) [Compound 120],16.12 ± 0.27,17.22 ± 0.20,3.04 ± 0.47,1.50 ± 0.25,1.56 ± 0.47,2.05 ± 0.25
O=C1CCCC(=O)N1CCC1CCCNC1 (stereo not shown) [Compound 121],16.35 ± 0.20,17.38 ± 0.29,3.08 ± 0.47,1.50 ± 0.14,1.52 ± 0.47,2.09 ± 0.22
O=C1CCCC(=O)N1CCC1CCCCN1 (stereo not shown) [Compound 122],16.93 ± 0.32,16.37 ± 0.21,3.04 ± 0.44,1.75 ± 0.41,1.56 ± 0.44,1.88 ± 0.47
O=C1CCCC(=O)N1CCC1CCNCC1 [Compound 123],15.87 ± 0.20,17.55 ± 0.53,2.50 ± 0.43,1.33 ± 0.19,2.1 ± 0.43,2.62 ± 0.5
O=C1CCCC(=O)N1CCc1nc2ccccc2[nH]1 [Compound 124],16.43 ± 0.26,16.37 ± 0.43,2.46 ± 0.22,0.83 ± 0.37,2.14 ± 0.22,2.97 ± 0.37
